PubChem BioAssay AID2060621 (Molecular Pharmacology Branch, DTP, NCI, 2025)
Several values for one entry are separate records, joined by “and”; a condition that tells them apart may be missing. Equal entries are not always repeated.

Tested on: 324938-238-R-J1-PDC complex spheroids viability
Assay: Anticancer human tumor 324938-238-R-J1-PDC patient-derived bladder carcinoma cell line growth inhibition [CLK]
Details: for viability, T/C: stronger effect = lower value
Outline: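 Multi-cell-type spheroids combined patient-derived tumor cells with HUVEC endothelial cells and human mesenchymal stem cells. Paired agents were dosed in half-log steps down from about clinical Cmax, or from 10 microM where Cmax was unknown.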

[1] = curve of first compound, second compound 0.0316 µM
[2] = curve of first compound, second compound 0.1 µM
[3] = curve of first compound, second compound 0.316 µM
[4] = curve of first compound, second compound 1 µM
[5] = curve of first compound, second compound 3.16 µM
[6] = curve of first compound, second compound 10 µM
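Also: viability read after seven days of drug exposure.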
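For viability, T/C in this document: 100% = DMSO vehicle control wells.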

For `C=CC(=O)N1CCN(c2nc(=O)n(-c3c(C)ccnc3C(C)C)c3nc(-c4c(O)cccc4F)c(F)cc23)C(C)C1` (stereo unspecified), the viability, T/C (compound 0.0316 µM) was 79.1% and 96.4%, the viability, T/C (compound 0.1 µM) was 91.3% and 85% and the viability, T/C (compound 0.316 µM) was 85.2% and 93.5%. The viability, T/C (compound 1 µM) was 102% and 99.9%, the viability, T/C (compound 3.16 µM) was 105% and 99.1% and the viability, T/C (compound 10 µM) was 87.9% and 86.4%. The IC50 (curve of compound) was greater than 10000 nM.
With `CC1(C)CCC(CN2CCN(c3ccc(C(=O)NS(=O)(=O)c4ccc(NCC5CCOCC5)c([N+](=O)[O-])c4)c(Oc4cnc5[nH]ccc5c4)c3)CC2)=C(c2ccc(Cl)cc2)C1` + CN1CCN(c2cc(C(=O)Nc3cc4cc(-c5cnn(C)c5)ccc4cn3)ccn2)CC1 the IC50 [1] was 6720 nM, the IC50 [2] was 1480 nM and the IC50 [3] was less than 31.6 nM. The IC50 [4] was less than 31.6 nM, the IC50 [5] was less than 31.6 nM and the IC50 [6] was less than 31.6 nM. For the same molecule, the viability, T/C (second compound 0.0316 µM, first compound 0.0316 µM) was 79.6%, the viability, T/C (second compound 0.0316 µM, first compound 0.1 µM) was 90.2% and the viability, T/C (second compound 0.0316 µM, first compound 0.316 µM) was 80.3%. The viability, T/C (second compound 0.0316 µM, first compound 1 µM) was 81%, the viability, T/C (second compound 0.0316 µM, first compound 3.16 µM) was 82.8% and the viability, T/C (second compound 0.0316 µM, first compound 10 µM) was 32.7%. It also gave a viability, T/C (second compound 0.1 µM, first compound 0.0316 µM) of 51.9%, a viability, T/C (second compound 0.1 µM, first compound 0.1 µM) of 55.4% and a viability, T/C (second compound 0.1 µM, first compound 0.316 µM) of 47.4%. For the same molecule, the viability, T/C (second compound 0.1 µM, first compound 1 µM) was 54.9%, the viability, T/C (second compound 0.1 µM, first compound 3.16 µM) was 46.2% and the viability, T/C (second compound 0.1 µM, first compound 10 µM) was 26.4%. It also gave a viability, T/C (second compound 0.316 µM, first compound 0.0316 µM) of 25.2%, a viability, T/C (second compound 0.316 µM, first compound 0.1 µM) of 22.9% and a viability, T/C (second compound 0.316 µM, first compound 0.316 µM) of 19%. The viability, T/C (second compound 0.316 µM, first compound 1 µM) was 24.8%, the viability, T/C (second compound 0.316 µM, first compound 3.16 µM) was 21.5% and the viability, T/C (second compound 0.316 µM, first compound 10 µM) was 11.6%. The viability, T/C (second compound 1 µM, first compound 0.0316 µM) was 1.53%, the viability, T/C (second compound 1 µM, first compound 0.1 µM) was 1.38% and the viability, T/C (second compound 1 µM, first compound 0.316 µM) was 1.4%. It also gave a viability, T/C (second compound 1 µM, first compound 1 µM) of 1.48%, a viability, T/C (second compound 1 µM, first compound 3.16 µM) of 1.08% and a viability, T/C (second compound 1 µM, first compound 10 µM) of 0.34%. It also gave a viability, T/C (second compound 3.16 µM, first compound 0.0316 µM) of 0.12%, a viability, T/C (second compound 3.16 µM, first compound 0.1 µM) of 0.21% and a viability, T/C (second compound 3.16 µM, first compound 0.316 µM) of 0.14%. It also gave a viability, T/C (second compound 3.16 µM, first compound 1 µM) of 0.14%, a viability, T/C (second compound 3.16 µM, first compound 3.16 µM) of 0.11% and a viability, T/C (second compound 3.16 µM, first compound 10 µM) of 0.16%. It also gave a viability, T/C (second compound 10 µM, first compound 0.0316 µM) of 0.12%, a viability, T/C (second compound 10 µM, first compound 0.1 µM) of 0.16% and a viability, T/C (second compound 10 µM, first compound 0.316 µM) of 0.16%. For the same molecule, the viability, T/C (second compound 10 µM, first compound 1 µM) was 0.14%, the viability, T/C (second compound 10 µM, first compound 3.16 µM) was 0.19% and the viability, T/C (second compound 10 µM, first compound 10 µM) was 0.19%.
`CC(C)CC(NC(=O)C(Cc1ccccc1)NC(=O)c1cnccn1)B(O)O` (stereo unspecified) + CNC(=O)c1ccc(Nc2nc(OC3CCCC3)c3c(-c4ccc5nc(C)oc5c4)c[nH]c3n2)c(OC)c1 showed an IC50 [1] of 1.27 nM, an IC50 [2] of less than 0.949 nM and an IC50 [3] of less than 0.949 nM. It also gave an IC50 [4] of less than 0.949 nM, an IC50 [5] of less than 0.949 nM and an IC50 [6] of less than 0.949 nM. For the same molecule, the viability, T/C (second compound 0.0316 µM, first compound 0.000949 µM) was 66.2%, the viability, T/C (second compound 0.0316 µM, first compound 0.003 µM) was 1.72% and the viability, T/C (second compound 0.0316 µM, first compound 0.00949 µM) was 0.22%. It also gave a viability, T/C (second compound 0.0316 µM, first compound 0.03 µM) of 0.21%, a viability, T/C (second compound 0.0316 µM, first compound 0.0949 µM) of 0.13% and a viability, T/C (second compound 0.0316 µM, first compound 0.3 µM) of 0.19%. It also gave a viability, T/C (second compound 0.1 µM, first compound 0.000949 µM) of 37.7%, a viability, T/C (second compound 0.1 µM, first compound 0.003 µM) of 1.25% and a viability, T/C (second compound 0.1 µM, first compound 0.00949 µM) of 0.18%. It also gave a viability, T/C (second compound 0.1 µM, first compound 0.03 µM) of 0.13%, a viability, T/C (second compound 0.1 µM, first compound 0.0949 µM) of 0.55% and a viability, T/C (second compound 0.1 µM, first compound 0.3 µM) of 0.13%. It also gave a viability, T/C (second compound 0.316 µM, first compound 0.000949 µM) of 21.6%, a viability, T/C (second compound 0.316 µM, first compound 0.003 µM) of 1.05% and a viability, T/C (second compound 0.316 µM, first compound 0.00949 µM) of 0.17%. The viability, T/C (second compound 0.316 µM, first compound 0.03 µM) was 0.08%, the viability, T/C (second compound 0.316 µM, first compound 0.0949 µM) was 0.1% and the viability, T/C (second compound 0.316 µM, first compound 0.3 µM) was 0.13%. The viability, T/C (second compound 1 µM, first compound 0.000949 µM) was 17.3%, the viability, T/C (second compound 1 µM, first compound 0.003 µM) was 0.5% and the viability, T/C (second compound 1 µM, first compound 0.00949 µM) was 0.13%. The viability, T/C (second compound 1 µM, first compound 0.03 µM) was 0.1%, the viability, T/C (second compound 1 µM, first compound 0.0949 µM) was 0.1% and the viability, T/C (second compound 1 µM, first compound 0.3 µM) was 0.12%. For the same molecule, the viability, T/C (second compound 3.16 µM, first compound 0.000949 µM) was 12.2%, the viability, T/C (second compound 3.16 µM, first compound 0.003 µM) was 0.3% and the viability, T/C (second compound 3.16 µM, first compound 0.00949 µM) was 0.2%. It also gave a viability, T/C (second compound 3.16 µM, first compound 0.03 µM) of 0.09%, a viability, T/C (second compound 3.16 µM, first compound 0.0949 µM) of 0.14% and a viability, T/C (second compound 3.16 µM, first compound 0.3 µM) of 0.16%. The viability, T/C (second compound 10 µM, first compound 0.000949 µM) was 12%, the viability, T/C (second compound 10 µM, first compound 0.003 µM) was 0.29% and the viability, T/C (second compound 10 µM, first compound 0.00949 µM) was 0.87%. For the same molecule, the viability, T/C (second compound 10 µM, first compound 0.03 µM) was 0.13%, the viability, T/C (second compound 10 µM, first compound 0.0949 µM) was 1.24% and the viability, T/C (second compound 10 µM, first compound 0.3 µM) was 0.19%.
